Laboratory results published in PubChem BioAssay (NCI).
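Five compound concentrations were applied to cells in 96-well plates for 48 hours; endpoints were derived by simple linear interpolation of the resulting dose-response curve. TGI: concentration producing complete growth inhibition.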

Assays:
Assay in all cases: NCI anticancer screen, dose series, 48 h
[1] = tested on: HL-60(TB) leukemia
[2] = tested on: MALME-3M melanoma
[3] = tested on: CCRF-CEM leukemia
[4] = tested on: KM12 colon
[5] = tested on: HOP-62 NSCLC
[6] = tested on: OVCAR-4 ovarian
[7] = tested on: M14 melanoma
[8] = tested on: HT29 colon
[9] = tested on: OVCAR-8 ovarian
[10] = tested on: HCT-15 colon
[11] = tested on: EKVX NSCLC
[12] = tested on: U251 CNS
[13] = tested on: SK-MEL-28 melanoma
[14] = tested on: RXF 393 renal
[15] = tested on: BT-549 breast
[16] = tested on: NCI/ADR-RES ovarian

Q: What does the source list for `C=CCN(C)CN(C)c1nc(N(C)C)nc(N(C)C)n1`?
A: TGI [1]: 48.7 µM; TGI [2]: > 100 µM; TGI [3]: > 100 µM; TGI [4]: > 100 µM; TGI [5]: > 100 µM; TGI [6]: > 100 µM; TGI [7]: > 100 µM; TGI [8]: > 100 µM; TGI [9]: > 100 µM; TGI [10]: > 100 µM; TGI [11]: > 100 µM; TGI [12]: > 100 µM; TGI [13]: > 100 µM

Q: Which results are given for `O=c1cc(-c2ccc(Cl)cc2)oc2cc(OCCCOc3ccc4c(=O)cc(-c5ccc(Cl)cc5)oc4c3)ccc12`?
A: TGI [1]: > 100 µM; TGI [2]: > 100 µM; TGI [3]: > 100 µM; TGI [4]: > 100 µM; TGI [5]: > 100 µM; TGI [6]: > 100 µM; TGI [7]: > 100 µM; TGI [8]: > 100 µM; TGI [9]: > 100 µM; TGI [10]: > 100 µM; TGI [11]: > 100 µM; TGI [14]: > 100 µM; TGI [12]: > 100 µM; TGI [13]: > 100 µM

Q: How did the TGI [1] turn out when `O=C1CC(=O)N(CCc2ccccc2)S(=O)(=O)N1CCc1ccccc1` was run?
A: 38.3 µM

Q: And the TGI [2]?
A: 79.5 µM

Q: And the TGI [3]?
A: 35 µM

Q: What about the TGI [4] of the same molecule?
A: 39.5 µM

Q: What about the TGI [5] of the same molecule?
A: > 100 µM

Q: What about the TGI [6] of the same molecule?
A: 44.6 µM

Q: And the TGI [7]?
A: > 100 µM

Q: And the TGI [8]?
A: 47.5 µM

Q: And the TGI [10]?
A: > 100 µM

Q: What about the TGI [14] of the same molecule?
A: 83.4 µM

Q: And the TGI [12]?
A: 30.5 µM

Q: And the TGI [13]?
A: > 100 µM

Q: Which results are given for `COC(=O)[C@@]12OC[C@]34C([C@@H](O)C1O)[C@@]1(C)CC(=O)C(OC(=O)/C=C(/c5ccccc5)C(F)(F)F)=C(C)C1C[C@H]3OC(=O)[C@H](O)[C@H]42` (stereo partly drawn)?
A: TGI [1]: 2.97 µM; TGI [2]: 28.9 µM; TGI [3]: > 50 µM; TGI [4]: > 50 µM; TGI [5]: 46.1 µM; TGI [6]: > 50 µM; TGI [7]: 36.9 µM; TGI [8]: 46.3 µM; TGI [9]: > 50 µM; TGI [10]: > 50 µM; TGI [11]: > 50 µM; TGI [14]: 45.6 µM; TGI [12]: > 50 µM; TGI [13]: 27 µM

Q: For `[N-]=[N+]=NC(CBr)c1cn([C@H]2C[C@H](O)[C@@H](CO)O2)c(=O)[nH]c1=O` (stereo partly drawn), which TGI [1] is on record?
A: > 100 µM

Q: And the TGI [2]?
A: > 100 µM

Q: And the TGI [3]?
A: > 100 µM

Q: What about the TGI [4] of the same molecule?
A: > 100 µM

Q: What about the TGI [5] of the same molecule?
A: > 100 µM

Q: What about the TGI [7] of the same molecule?
A: > 100 µM

Q: What about the TGI [8] of the same molecule?
A: > 100 µM

Q: What about the TGI [9] of the same molecule?
A: > 100 µM

Q: And the TGI [10]?
A: > 100 µM

Q: And the TGI [11]?
A: > 100 µM

Q: And the TGI [14]?
A: > 100 µM

Q: What about the TGI [12] of the same molecule?
A: > 100 µM

Q: And the TGI [13]?
A: > 100 µM

Q: How did the TGI [2] turn out when `COc1cc2c(cc1OC)C(=O)C(C1=C(SC(=N)N)C(=O)c3cc(OC)c(OC)cc31)C2` (stereo not drawn) was run?
A: > 100 µM

Q: What about the TGI [3] of the same molecule?
A: > 100 µM

Q: And the TGI [4]?
A: > 100 µM

Q: And the TGI [5]?
A: > 100 µM

Q: What about the TGI [6] of the same molecule?
A: > 100 µM

Q: And the TGI [7]?
A: > 100 µM

Q: And the TGI [8]?
A: > 100 µM

Q: And the TGI [9]?
A: > 100 µM

Q: And the TGI [10]?
A: > 100 µM

Q: And the TGI [11]?
A: > 100 µM

Q: And the TGI [12]?
A: > 100 µM

Q: And the TGI [13]?
A: > 100 µM

Q: Which TGI [1] does the source give for `Cn1c2cc(O)cc(O)c2c(=O)c2c([N+](=O)[O-])cccc21` here?
A: > 100 µM

Q: What about the TGI [2] of the same molecule?
A: > 100 µM

Q: And the TGI [3]?
A: > 100 µM

Q: And the TGI [4]?
A: > 100 µM

Q: And the TGI [5]?
A: > 100 µM

Q: And the TGI [6]?
A: > 100 µM

Q: What about the TGI [7] of the same molecule?
A: > 100 µM

Q: What about the TGI [8] of the same molecule?
A: > 100 µM

Q: What about the TGI [9] of the same molecule?
A: > 100 µM

Q: What about the TGI [10] of the same molecule?
A: > 100 µM

Q: And the TGI [11]?
A: > 100 µM

Q: And the TGI [14]?
A: > 100 µM

Q: And the TGI [12]?
A: > 100 µM

Q: What about the TGI [13] of the same molecule?
A: > 100 µM

Q: `COc1cc(O)c2c(=O)cc(C3(O)C=CC(=O)C=C3)oc2c1` was tested. Which TGI [1] did it give?
A: 2.75 µM

Q: What about the TGI [15] of the same molecule?
A: 1.49 µM

Q: What about the TGI [4] of the same molecule?
A: 0.447 µM

Q: And the TGI [5]?
A: 0.486 µM

Q: What about the TGI [6] of the same molecule?
A: 3.35 µM

Q: What about the TGI [7] of the same molecule?
A: 2.37 µM

Q: And the TGI [9]?
A: 0.586 µM

Q: What about the TGI [10] of the same molecule?
A: 1.11 µM

Q: What about the TGI [11] of the same molecule?
A: 5.79 µM

Q: What about the TGI [14] of the same molecule?
A: 17.7 µM

Q: What about the TGI [16] of the same molecule?
A: 18.9 µM

Q: And the TGI [12]?
A: 0.0808 µM

Q: What about the TGI [13] of the same molecule?
A: 0.578 µM

Q: `Cn1ncnc1CCc1ccccc1` was tested. Which TGI [1] did it give?
A: > 100 µM

Q: What about the TGI [2] of the same molecule?
A: > 100 µM

Q: What about the TGI [3] of the same molecule?
A: > 100 µM

Q: What about the TGI [4] of the same molecule?
A: > 100 µM

Q: And the TGI [5]?
A: > 100 µM

Q: What about the TGI [6] of the same molecule?
A: > 100 µM

Q: And the TGI [7]?
A: > 100 µM

Q: What about the TGI [8] of the same molecule?
A: > 100 µM

Q: And the TGI [9]?
A: > 100 µM

Q: What about the TGI [10] of the same molecule?
A: > 100 µM

Q: And the TGI [14]?
A: > 100 µM

Q: What about the TGI [12] of the same molecule?
A: > 100 µM

Q: What about the TGI [13] of the same molecule?
A: > 100 µM

Q: `CC1(C)CC(=O)c2c(nc(SSc3nc4c(c(-c5ccccc5)c3C#N)C(=O)CC(C)(C)C4)c(C#N)c2-c2ccccc2)C1` was tested. Which TGI [1] did it give?
A: > 10 µM

Q: What about the TGI [15] of the same molecule?
A: > 10 µM

Q: And the TGI [2]?
A: > 10 µM

Q: What about the TGI [3] of the same molecule?
A: > 10 µM

Q: What about the TGI [4] of the same molecule?
A: > 10 µM

Q: What about the TGI [5] of the same molecule?
A: > 10 µM

Q: What about the TGI [6] of the same molecule?
A: > 10 µM

Q: And the TGI [7]?
A: > 10 µM

Q: And the TGI [8]?
A: > 10 µM

Q: What about the TGI [9] of the same molecule?
A: > 10 µM

Q: And the TGI [10]?
A: > 10 µM

Q: And the TGI [11]?
A: > 10 µM

Q: What about the TGI [14] of the same molecule?
A: > 10 µM

Q: What about the TGI [16] of the same molecule?
A: > 10 µM

Q: And the TGI [12]?
A: > 10 µM

Q: What about the TGI [13] of the same molecule?
A: > 10 µM

Q: Which results are given for `CC(C)C(/C=C/c1ccc(Br)cc1)=N\NC(N)=O`?
A: TGI [1]: > 100 µM; TGI [3]: > 100 µM; TGI [4]: > 100 µM; TGI [5]: > 100 µM; TGI [6]: > 100 µM; TGI [7]: > 100 µM; TGI [8]: > 100 µM; TGI [9]: > 100 µM; TGI [10]: > 100 µM; TGI [11]: > 100 µM; TGI [14]: > 100 µM; TGI [12]: > 100 µM; TGI [13]: > 100 µM

Q: `O=c1cc(-c2ccccc2)oc2cc(OCCSCCCCCCCCCCSCCOc3ccc4c(=O)cc(-c5ccccc5)oc4c3)ccc12` was tested. Which TGI [1] did it give?
A: > 100 µM

Q: What about the TGI [2] of the same molecule?
A: > 100 µM

Q: And the TGI [3]?
A: > 100 µM

Q: And the TGI [4]?
A: > 100 µM

Q: What about the TGI [5] of the same molecule?
A: > 100 µM

Q: And the TGI [7]?
A: > 100 µM

Q: And the TGI [8]?
A: > 100 µM

Q: And the TGI [9]?
A: > 100 µM

Q: What about the TGI [10] of the same molecule?
A: > 100 µM

Q: And the TGI [11]?
A: > 100 µM

Q: What about the TGI [14] of the same molecule?
A: > 100 µM

Q: What about the TGI [12] of the same molecule?
A: > 100 µM

Q: What about the TGI [13] of the same molecule?
A: > 100 µM

Q: For `CC(=O)Nc1ccc(C(=O)NN2C(=O)C(Cl)C2c2ccccc2O)cc1` (stereo not drawn), which TGI [1] is on record?
A: > 100 µM

Q: And the TGI [2]?
A: > 100 µM

Q: And the TGI [3]?
A: > 100 µM

Q: And the TGI [5]?
A: 41.6 µM

Q: And the TGI [6]?
A: > 100 µM

Q: What about the TGI [7] of the same molecule?
A: > 100 µM

Q: What about the TGI [8] of the same molecule?
A: > 100 µM

Q: And the TGI [9]?
A: > 100 µM

Q: What about the TGI [10] of the same molecule?
A: > 100 µM

Q: What about the TGI [11] of the same molecule?
A: > 100 µM

Q: And the TGI [14]?
A: 61 µM

Q: And the TGI [12]?
A: > 100 µM

Q: And the TGI [13]?
A: > 100 µM

Q: With `CCOC(=O)C1=C(C)N(NC(N)=O)C2(O)CCCC(=O)C12C` (stereo not drawn) as the molecule, how does the TGI [2] read?
A: > 100 µM

Q: And the TGI [4]?
A: > 100 µM

Q: And the TGI [6]?
A: > 100 µM

Q: And the TGI [7]?
A: > 100 µM

Q: And the TGI [8]?
A: > 100 µM

Q: What about the TGI [9] of the same molecule?
A: > 100 µM

Q: What about the TGI [10] of the same molecule?
A: > 100 µM

Q: What about the TGI [14] of the same molecule?
A: > 100 µM

Q: And the TGI [12]?
A: > 100 µM

Q: What about the TGI [13] of the same molecule?
A: > 100 µM
